Test results: US7829711B2, “Crystalline materials of 1-(4-benzoyl-piperazin-1-yl)-2-[4-methoxy-7-(3-methyl-[1,2,4]triazol-1-yl)-1H-pyrrolo[2,3-C]pyridine-3-yl]-ethane-1,2-dione” (Bristol-Myers Squibb Company, priority 2004, dated 2010)
Values after ≈ are worked out from the molar mass of the structure shown.

Tests used:
Type in all cases: physicochemical
[1] = Aqueous solubility of Form P-1; conditions: aqueous medium
[2] = pKa of Form P-1
[3] = Hygroscopicity of Form P-1
[4] = Solvent mediated polymorphic transformation (suspension of P-1 crystals in solvents); conditions: room temperature or elevated temperature

SMILES: COc1cnc(-n2cnc(C)n2)c2[nH]cc(C(=O)C(=O)N3CCN(C(=O)c4ccccc4)CC3)c12 [Form P-1, 1-(4-benzoyl-piperazin-1-yl)-2-[4-methoxy-7-(3-methyl-[1,2,4]triazol-1-yl)-1H-pyrrolo[2,3-c]pyridin-3-yl]-ethane-1,2-dione]
- solubility ([1]; 25 °C, pH 5.7, aqueous buffer): 2.7 µg/mL (≈ 5.7 µM)
- solubility ([1]; aqueous buffer, pH 8.6, 25° C.): 14 µg/mL (≈ 29.6 µM)
- solubility ([1]; simulated gastric fluid, pH 1.4, 25° C.): 12 µg/mL (≈ 25.3 µM)
- pKa [2]: 8.4
- Hygroscopicity: maximum water uptake ([3]; at 90% RH): RH and 3.2% maximum water uptake at 90% RH)
- Hygroscopicity ([3]; result in words): Low hygroscopicity
- Hygroscopicity: weight gain ([3]; under 30-60% RH): 1%
- Phase conversion on suspension in various solvents [4]: did not show any phase conversion
